Measured values taken from ChEMBL document CHEMBL1201862, “PubChem BioAssay data set” (2004).
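Cultured in 96-well plates, cells were exposed to test compound for 48 hours across five concentrations. At the GI50, growth is halved.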 Calls of active or inactive are those of the source. Cut-off read from the data, not from the text of the source: active = GI50 up to about 1.1 µM and inactive = higher.

How the values were obtained:
Experiment in all cases: NCI-60 cell line screen, 48 h
TK-10 = tested on: TK-10
KM12 = tested on: KM12
NCI-H460 = tested on: NCI-H460
Malme-3M = tested on: Malme-3M
A549 = tested on: A549
K562 = tested on: K562
RXF 393 = tested on: RXF 393
HCC 2998 = tested on: HCC 2998
ACHN = tested on: ACHN
SF-539 = tested on: SF-539
DMS-273 = tested on: DMS-273
M14 = tested on: M14
CAKI-1 = tested on: CAKI-1
IGROV-1 = tested on: IGROV-1
SN12C = tested on: SN12C
NCI-H226 = tested on: NCI-H226
SF-268 = tested on: SF-268
SR = tested on: SR
SNB-75 = tested on: SNB-75
HCT-116 = tested on: HCT-116
UACC-62 = tested on: UACC-62
HL-60 = tested on: HL-60
HOP-92 = tested on: HOP-92
U-251 = tested on: U-251
A498 = tested on: A498
HCT-15 = tested on: HCT-15
SNB-19 = tested on: SNB-19
LOX IMVI = tested on: LOX IMVI
KM-20L2 = tested on: KM-20L2
RPMI-8226 = tested on: RPMI-8226
MOLT-4 = tested on: MOLT-4
XF498 = tested on: XF498
COLO 205 = tested on: COLO 205
UO-31 = tested on: UO-31
EKVX = tested on: EKVX
SW-620 = tested on: SW-620
DLD-1 = tested on: DLD-1
HT-29 = tested on: HT-29
LXFL 529 = tested on: LXFL 529
HOP-62 = tested on: HOP-62
SK-OV-3 = tested on: SK-OV-3
UACC-257 = tested on: UACC-257
OVCAR-5 = tested on: OVCAR-5
SF-295 = tested on: SF-295
CCRF-CEM = tested on: CCRF-CEM
SNB-78 = tested on: SNB-78
786-0 = tested on: 786-0
M19-MEL = tested on: M19-MEL
DMS-114 = tested on: DMS-114
HOP-18 = tested on: HOP-18
NCI-H522 = tested on: NCI-H522
NCI-H23 = tested on: NCI-H23
OVCAR-8 = tested on: OVCAR-8
SK-MEL-2 = tested on: SK-MEL-2
OVCAR-3 = tested on: OVCAR-3
SK-MEL-5 = tested on: SK-MEL-5
SK-MEL-28 = tested on: SK-MEL-28
OVCAR-4 = tested on: OVCAR-4

## Nc1cccc(C(=O)/C=C/c2ccccc2O)c1
TK-10
  GI50: > 100 µM (inactive)
KM12
  GI50: > 100 µM (inactive)
NCI-H460
  GI50: > 100 µM (inactive)
Malme-3M
  GI50: > 100 µM (inactive)
A549
  GI50: > 100 µM (inactive)
K562
  GI50: 32.9 µM (inactive)
RXF 393
  GI50: 85.5 µM (inactive)
HCC 2998
  GI50: > 100 µM (inactive)
ACHN
  GI50: > 100 µM (inactive)
SF-539
  GI50: > 100 µM (inactive)
DMS-273
  GI50: > 100 µM (inactive)
M14
  GI50: > 100 µM (inactive)
CAKI-1
  GI50: > 100 µM (inactive)
IGROV-1
  GI50: > 100 µM (inactive)
SN12C
  GI50: > 100 µM (inactive)
NCI-H226
  GI50: > 100 µM (inactive)
SF-268
  GI50: > 100 µM (inactive)
SR
  GI50: 44.7 µM (inactive)
SNB-75
  GI50: 13.2 µM (inactive)
HCT-116
  GI50: > 100 µM (inactive)
UACC-62
  GI50: > 100 µM (inactive)
HL-60
  GI50: 20.7 µM (inactive)
HOP-92
  GI50: > 100 µM (inactive)
U-251
  GI50: 98.6 µM (inactive)
A498
  GI50: > 100 µM (inactive)
HCT-15
  GI50: > 100 µM
SNB-19
  GI50: > 100 µM (inactive)
LOX IMVI
  GI50: 31.4 µM (inactive)
KM-20L2
  GI50: > 100 µM (inactive)
RPMI-8226
  GI50: 16.2 µM (inactive)
MOLT-4
  GI50: > 100 µM (inactive)
XF498
  GI50: > 100 µM (inactive)
COLO 205
  GI50: > 100 µM (inactive)
UO-31
  GI50: > 100 µM (inactive)
EKVX
  GI50: > 100 µM (inactive)
SW-620
  GI50: 12.2 µM (inactive)
DLD-1
  GI50: > 100 µM (inactive)
HT-29
  GI50: 68.2 µM (inactive)
LXFL 529
  GI50: 71.4 µM (inactive)
HOP-62
  GI50: > 100 µM (inactive)
SK-OV-3
  GI50: > 100 µM (inactive)
UACC-257
  GI50: > 100 µM (inactive)
OVCAR-5
  GI50: > 100 µM (inactive)
SF-295
  GI50: > 100 µM (inactive)
CCRF-CEM
  GI50: 27.5 µM (inactive)
SNB-78
  GI50: > 100 µM (inactive)
786-0
  GI50: 33.1 µM (inactive)
M19-MEL
  GI50: > 100 µM (inactive)
DMS-114
  GI50: 46.7 µM (inactive)
HOP-18
  GI50: 84.3 µM (inactive)
NCI-H522
  GI50: 59.4 µM (inactive)
NCI-H23
  GI50: > 100 µM (inactive)
OVCAR-8
  GI50: > 100 µM (inactive)
SK-MEL-2
  GI50: > 100 µM (inactive)
OVCAR-3
  GI50: > 100 µM (inactive)
SK-MEL-5
  GI50: > 100 µM (inactive)
SK-MEL-28
  GI50: > 100 µM (inactive)

## COC1OC(CO)C(O)C(NC(=O)N(C)N=O)C1O (stereo not given)
TK-10
  GI50: > 100 µM (inactive)
KM12
  GI50: > 100 µM (inactive)
NCI-H460
  GI50: > 100 µM (inactive)
Malme-3M
  GI50: > 100 µM (inactive)
A549
  GI50: > 100 µM (inactive)
K562
  GI50: > 100 µM (inactive)
RXF 393
  GI50: > 100 µM (inactive)
HCC 2998
  GI50: > 100 µM (inactive)
ACHN
  GI50: > 100 µM (inactive)
SF-539
  GI50: > 100 µM (inactive)
DMS-273
  GI50: > 100 µM (inactive)
M14
  GI50: > 100 µM (inactive)
CAKI-1
  GI50: > 100 µM (inactive)
IGROV-1
  GI50: > 100 µM (inactive)
SN12C
  GI50: > 100 µM (inactive)
NCI-H226
  GI50: > 100 µM (inactive)
SF-268
  GI50: > 100 µM (inactive)
SR
  GI50: > 100 µM (inactive)
SNB-75
  GI50: > 100 µM (inactive)
HCT-116
  GI50: > 100 µM (inactive)
HL-60
  GI50: > 100 µM (inactive)
HOP-92
  GI50: > 100 µM (inactive)
U-251
  GI50: > 100 µM (inactive)
A498
  GI50: > 100 µM (inactive)
HCT-15
  GI50: > 100 µM
SNB-19
  GI50: > 100 µM (inactive)
KM-20L2
  GI50: > 100 µM (inactive)
RPMI-8226
  GI50: > 100 µM (inactive)
MOLT-4
  GI50: > 100 µM (inactive)
XF498
  GI50: > 100 µM (inactive)
COLO 205
  GI50: > 100 µM (inactive)
UO-31
  GI50: > 100 µM (inactive)
EKVX
  GI50: > 100 µM (inactive)
SW-620
  GI50: > 100 µM (inactive)
DLD-1
  GI50: > 100 µM (inactive)
HT-29
  GI50: > 100 µM (inactive)
LXFL 529
  GI50: > 100 µM (inactive)
SK-OV-3
  GI50: > 100 µM (inactive)
SF-295
  GI50: > 100 µM (inactive)
CCRF-CEM
  GI50: > 100 µM (inactive)
SNB-78
  GI50: > 100 µM (inactive)
786-0
  GI50: > 100 µM (inactive)
OVCAR-4
  GI50: > 100 µM (inactive)
M19-MEL
  GI50: > 100 µM (inactive)
DMS-114
  GI50: > 100 µM (inactive)
HOP-18
  GI50: > 100 µM (inactive)
NCI-H522
  GI50: > 100 µM (inactive)
NCI-H23
  GI50: > 100 µM (inactive)
OVCAR-8
  GI50: > 100 µM (inactive)
SK-MEL-2
  GI50: > 100 µM (inactive)
OVCAR-3
  GI50: > 100 µM (inactive)
SK-MEL-5
  GI50: > 100 µM (inactive)
SK-MEL-28
  GI50: > 100 µM (inactive)
